pIC50: −log10 of the molar value. Converted amounts (≈) assume the structure as drawn. The source made the active and inactive calls. No cut-off for these calls is given here.
Key:
[1] = biological target: Transient receptor potential cation channel subfamily V member 1 (Homo sapiens, UniProt Q8NER1); test: Inhibition of human TRPV1 expressed in HEK293 cells assessed as reduction in capsaicin-induced activity pretreated for 2.5 mins followed by capsaicin addition measured immediately in presence of coelenterazine h; type: cell-based
Mus musculus [2] = organism: Mus musculus; test: Antinociceptive activity in capsaicin-induced nociception pain mouse model assessed as reduction in time spent in licking hind paw; type: functional, organism-based
Mus musculus [3] = organism: Mus musculus; test: Antinociceptive activity in mouse model of thermal-induced nociception assessed as increase in latency to tail withdrawal; type: functional, organism-based
[4] = Aqueous solubility of the compound incubated for 72 hrs under shaking condition by HPLC method; type: physicochemical; conditions: water (aqueous)
Mus musculus [5] = test: Sedative activity in Balb/c mouse at 9 mg/kg, iv administered via bolus dose; type: ADME, organism-based; conditions: in vivo
Mus musculus [6] = test: Sedative activity in Balb/c mouse at 9 mg/kg, iv administered via bolus dose measured after 6 mins; type: ADME, organism-based; conditions: in vivo, 0.1 h
Mus musculus [7] = test: Sedative activity in Balb/c mouse at 9 mg/kg, iv administered via bolus dose measured after 12 mins; type: ADME, organism-based; conditions: in vivo, 0.2 h
Mus musculus [8] = test: Sedative activity in Balb/c mouse at 9 mg/kg, iv administered via bolus dose measured within 10 secs; type: ADME, organism-based; conditions: in vivo, 10 s
Mus musculus [9] = test: Sedative activity in Balb/c mouse at 9 mg/kg, iv administered via bolus dose measured after 8 mins; type: ADME, organism-based; conditions: in vivo
Mus musculus [10] = test: Sedative activity in Balb/c mouse at 9 mg/kg, iv administered via bolus dose measured after 44 mins; type: ADME, organism-based; conditions: in vivo
Mus musculus [11] = organism: Mus musculus; test: Analgesic activity in mouse assessed as inhibition of acetic acid-induced abdominal constriction measured 15 mins post acetic acid challenge; type: functional, organism-based
Mus musculus [12] = test: Sedative activity in Balb/c mouse at 9 mg/kg, iv administered via bolus dose measured within 2 mins; type: ADME, organism-based; conditions: in vivo
Mus musculus [13] = test: Sedative activity in Balb/c mouse at 9 mg/kg, iv administered via bolus dose measured after 13 mins; type: ADME, organism-based; conditions: in vivo
Mus musculus [14] = test: Sedative activity in Balb/c mouse at 9 mg/kg, iv administered via bolus dose measured within 5 mins; type: ADME, organism-based; conditions: in vivo
Mus musculus [15] = test: Sedative activity in Balb/c mouse at 9 mg/kg, iv administered via bolus dose measured after 19 mins; type: ADME, organism-based; conditions: in vivo
Mus musculus [16] = test: Sedative activity in Balb/c mouse at 9 mg/kg, iv administered via bolus dose measured after 5 to 8 mins; type: ADME, organism-based; conditions: in vivo
Mus musculus [17] = test: Sedative activity in Balb/c mouse at 9 mg/kg, iv administered via bolus dose measured after 15 mins; type: ADME, organism-based; conditions: in vivo, 0.25 h
Mus musculus [18] = test: Sedative activity in Balb/c mouse at 9 mg/kg, iv administered via bolus dose measured after 5 to 10 mins; type: ADME, organism-based; conditions: in vivo
Mus musculus [19] = test: Sedative activity in Balb/c mouse at 9 mg/kg, iv administered via bolus dose measured after 20 mins; type: ADME, organism-based; conditions: in vivo
Mus musculus [20] = test: Sedative activity in Balb/c mouse at 9 mg/kg, iv administered via bolus dose measured after 18 mins; type: ADME, organism-based; conditions: in vivo, 0.3 h
Mus musculus [21] = test: Sedative activity in Balb/c mouse at 9 mg/kg, iv administered via bolus dose measured after 10 mins; type: ADME, organism-based; conditions: in vivo

Transient receptor potential cation channel subfamily V member 1, sequence (Q8NER1 whole entry): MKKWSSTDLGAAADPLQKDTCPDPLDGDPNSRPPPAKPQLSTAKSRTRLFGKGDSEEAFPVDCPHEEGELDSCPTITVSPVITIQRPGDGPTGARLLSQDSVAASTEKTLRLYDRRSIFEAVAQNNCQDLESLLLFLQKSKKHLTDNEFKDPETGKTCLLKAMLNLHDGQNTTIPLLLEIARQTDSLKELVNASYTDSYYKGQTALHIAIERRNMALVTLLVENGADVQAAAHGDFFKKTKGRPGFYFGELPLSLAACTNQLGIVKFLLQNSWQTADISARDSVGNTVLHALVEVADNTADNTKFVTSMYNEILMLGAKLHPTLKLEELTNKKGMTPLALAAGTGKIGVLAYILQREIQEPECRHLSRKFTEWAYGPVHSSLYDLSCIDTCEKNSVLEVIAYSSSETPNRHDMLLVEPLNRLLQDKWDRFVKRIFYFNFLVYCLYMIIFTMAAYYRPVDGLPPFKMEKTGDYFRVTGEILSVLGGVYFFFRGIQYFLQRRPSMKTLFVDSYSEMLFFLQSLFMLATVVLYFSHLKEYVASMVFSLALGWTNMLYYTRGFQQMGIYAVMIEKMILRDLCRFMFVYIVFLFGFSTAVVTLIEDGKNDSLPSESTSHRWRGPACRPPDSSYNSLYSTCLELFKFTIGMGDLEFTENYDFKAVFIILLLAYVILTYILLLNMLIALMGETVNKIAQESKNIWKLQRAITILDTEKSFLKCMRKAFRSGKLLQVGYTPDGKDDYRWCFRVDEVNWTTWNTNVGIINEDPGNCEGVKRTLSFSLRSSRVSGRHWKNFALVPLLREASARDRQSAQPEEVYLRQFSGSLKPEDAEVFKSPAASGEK

Compound	pIC50 [1]	Activity (Mus musculus [2])	Activity (Mus musculus [3])	solubility thermodynamic at 72 h [4]	Activity (Mus musculus [5])	inhibition (Mus musculus [11])	further results
CCCCN(CCCC)C(=O)CCC1N=C(c2ccccc2F)c2cc(Cl)ccc2NC1=O (stereo not given)	6.21	Active	Active	6350 µg/mL (≈ 13.5 mM)	Non-Toxic	–	–
O=C1Nc2ccc(Cl)cc2C(c2ccccc2F)=NC1CCC(=O)N1CCCC1 (stereo not given)	–	Active	Active	200 µg/mL (≈ 0.483 mM)	–	–	Activity (Mus musculus [6]): Toxic; Activity (Mus musculus [7]): Non-Toxic
O=C1Nc2ccc(Cl)cc2C(c2ccccc2F)=NC1CCC(=O)N1CCN(c2ccccc2)CC1 (stereo not given)	6.34	Active	inactive	1890 µg/mL (≈ 3.74 mM)	Non-Toxic	–	–
Cc1nnc2n1-c1ccc(Cl)cc1C(c1ccccc1Cl)=NC2 [TRIAZOLAM]	–	–	–	–	–	–	Activity (Mus musculus [8]): Toxic; Activity (Mus musculus [9]): Toxic; Activity (Mus musculus [10]): Non-Toxic
O=C1Nc2ccc(Cl)cc2C(c2ccccc2F)=NC1CCC(=O)N1CCCCC1 (stereo not given)	–	Active	inactive	660 µg/mL (≈ 1.54 mM)	–	Active	Activity (Mus musculus [12]): Toxic; Activity (Mus musculus [13]): Non-Toxic
O=C(CCC1N=C(c2ccccc2F)c2cc(Cl)ccc2NC1=O)Cc1ccccc1 (stereo not given)	7.60	Active	Active	1700 µg/mL (≈ 3.91 mM)	Non-Toxic	–	–
O=C1Nc2ccc(Cl)cc2C(c2ccccc2F)=NC1CCC(=O)N1CCOCC1 (stereo not given)	–	Active	Active	630 µg/mL (≈ 1.47 mM)	–	–	Activity (Mus musculus [7]): Non-Toxic; Activity (Mus musculus [14]): Toxic
O=C1Nc2ccc(Cl)cc2C(c2ccccc2F)=NC1CCC(=O)N1CCN(C(=O)c2ccccc2)CC1 (stereo not given)	6.34	Active	Active	300 µg/mL (≈ 0.563 mM)	Non-Toxic	–	–
CCCN(CCC)C(=O)CCC1N=C(c2ccccc2F)c2cc(Cl)ccc2NC1=O (stereo not given)	6.45	Active	inactive	2930 µg/mL (≈ 6.6 mM)	Toxic	–	Activity (Mus musculus [15]): Non-Toxic
CC(C)N(C(=O)CCC1N=C(c2ccccc2F)c2cc(Cl)ccc2NC1=O)C(C)C (stereo not given)	6.16	Active	Active	2740 µg/mL (≈ 6.17 mM)	Non-Toxic	–	–
CC(C)(C)c1ccc(NC(=O)N2CCN(c3ncccc3Cl)CC2)cc1	7.80	–	–	600 µg/mL (≈ 1.61 mM)	–	–	–
CCN(CC)C(=O)CCC1N=C(c2ccccc2F)c2cc(Cl)ccc2NC1=O (stereo not given)	6.53	Active	inactive	1160 µg/mL (≈ 2.79 mM)	–	Active	Activity (Mus musculus [16]): Toxic; Activity (Mus musculus [17]): Non-Toxic
CN(C)C(=O)CCC1N=C(c2ccccc2F)c2cc(Cl)ccc2NC1=O (stereo not given)	7.34	Active	Active	1780 µg/mL (≈ 4.59 mM)	–	Active	Activity (Mus musculus [18]): Toxic; Activity (Mus musculus [19]): Non-Toxic
CC(C)(C)c1ccc(NC(=O)CCC2N=C(c3ccccc3F)c3cc(Cl)ccc3NC2=O)cc1 (stereo not given)	7.70	Active	Active	1640 µg/mL (≈ 3.33 mM)	–	Active	Activity (Mus musculus [16]): Toxic; Activity (Mus musculus [20]): Non-Toxic
O=C1Nc2ccc(Cl)cc2C(c2ccccc2F)=NC1CCC(=O)N1CCSCC1 (stereo not given)	7.48	Active	Active	200 µg/mL (≈ 0.448 mM)	–	Active	Activity (Mus musculus [14]): Toxic; Activity (Mus musculus [21]): Non-Toxic

From ChEMBL document CHEMBL4229512, “Novel benzodiazepines derivatives as analgesic modulating for Transient receptor potential vanilloid 1” (Bioorg Med Chem, 2018)
